The test system of the assay is pancreatic cancer cell lines (e.g. MIA PaCa-2). As to the kind of experiment: Cell based assay, cell viability (CellTiter-Glo), pancreatic cancer cell lines. Conditions: Homo sapiens. The procedure:
Commercially available bladder cancer, prostate cancer, lung cancer, breast cancer, blood cancer, pancreatic cancer, colorectal cancer, brain cancer, neuroblastoma, melanoma, liver cancer, cervical carcinoma, ovarian cancer, renal cancer, and papilloma cell lines were each treated with trypsin-EDTA and cultured, followed by being seeded in each well of a 96 well plate. After 24 hours of treatment at constant temperature, the respective cells were treated with the candidate compound so that a final concentration became 0 to 2 μM. The treated cells were additionally cultured for 72 hours, and cell viability was measured by using an ATP detection method (CellTiter-Glo® Luminescent Cell Viability Assay, Promega).
A general note: Cellular ATP, detected with luciferase, serves as a proxy for viable cell number.

The mark [1] stands for this setting: pancreatic cancer cell line AsPC-1, 72 hours, read-out: IC50, AsPC-1.
Where [2] appears, read: pancreatic cancer cell line BxPC-3, 72 hours, read-out: IC50, BxPC-3.
Setting [3] is: pancreatic cancer cell line CFPAC-1, 72 hours, read-out: IC50, CFPAC-1.
Where [4] appears, read: pancreatic cancer cell line Capan-1, 72 hours, read-out: IC50, Capan-1.
Where [5] appears, read: pancreatic cancer cell line Capan-2, 72 hours, read-out: IC50, Capan-2.
Where [6] appears, read: pancreatic cancer cell line MIA PaCa-2, 72 hours, read-out: IC50, MIA PaCa-2.
Setting [7] is: pancreatic cancer cell line PANC-1, 72 hours, read-out: IC50, PANC-1.

Read-outs that look alike come from different tables or passages of the source. Some results are limits rather than exact numbers.

For orientation: IC50 means the point on the concentration scale where inhibition reaches its midpoint.

On to `CC(=O)c1c(SC(C)C)[nH]c2c(Br)ccc(Cl)c2c1=O` [Compound 24, 3-acetyl-8-bromo-5-chloro-2-(isopropylthio)quinolin-4(1H)-one], for which the IC50 runs as follows: under setting [1], greater than 2 µM; under setting [2], greater than 2 µM; under setting [3], greater than 10 µM; under setting [4], greater than 2 µM; under setting [5], greater than 2 µM; under setting [6], greater than 2 µM. The IC50 under setting [7] was greater than 2 µM.

On to `CC(=O)c1c([S+]([O-])C(C)C)[nH]c2c(Br)ccc(Cl)c2c1=O` (stereo not drawn) [Compound 25, 3-acetyl-8-bromo-5-chloro-2-(isopropylsulfinyl)quinolin-4(1H)-one], for which the 50% inhibitory concentration (IC50) is, setting by setting: under setting [1], greater than 2 µM; under setting [2], greater than 2 µM; under setting [3], greater than 10 µM; under setting [4], greater than 2 µM; under setting [5], greater than 2 µM; under setting [6], greater than 2 µM. Further, the concentration for half-maximal inhibition (IC50) under setting [7] was greater than 2 µM.

Regarding `CC(=O)c1c([S+]([O-])C(C)c2ccccc2)[nH]c2c(Br)ccc(Cl)c2c1=O` (stereo not drawn) [Compound 26, 3-acetyl-8-bromo-5-chloro-2-((1-phenylethyl)sulfinyl)quinolin-4(1H)-one], the half-maximal inhibitory concentration (IC50) under setting [1] is greater than 2 µM; the IC50 under setting [2] is greater than 2 µM; the IC50 under setting [3] was greater than 10 µM; the IC50 under setting [4] was greater than 2 µM; the IC50 under setting [5] was greater than 2 µM; the IC50 under setting [6] is greater than 2 µM. In addition, the IC50 under setting [7] is greater than 2 µM.

With `CC(=O)c1c(SCc2cccc(C#N)c2)[nH]c2c(Br)ccc(Cl)c2c1=O` [Compound 27, 3-(((3-acetyl-8-bromo-5-chloro-4-oxo-1,4-dihydroquinolin-2-yl)thio)methyl)benzonitrile], the 50% inhibitory concentration (IC50) under setting [1] is greater than 2 µM; the half-inhibitory concentration (IC50) under setting [2] was greater than 2 µM; the half-inhibitory concentration (IC50) under setting [3] was greater than 10 µM; the 50% inhibitory concentration (IC50) under setting [4] is greater than 2 µM; the half-inhibitory concentration (IC50) under setting [5] was greater than 2 µM; the 50% inhibitory concentration (IC50) under setting [6] was greater than 2 µM. Besides, the IC50 under setting [7] was greater than 2 µM.

In the case of `CC(=O)c1c([S+]([O-])Cc2cccc(C#N)c2)[nH]c2c(Br)ccc(Cl)c2c1=O` (stereo not drawn) [Compound 28, 3-(((3-acetyl-8-bromo-5-chloro-4-oxo-1,4-dihydroquinolin-2-yl)sulfinyl)methyl)benzonitrile], the half-maximal inhibitory concentration (IC50) under setting [1] is greater than 2 µM; the 50% inhibitory concentration (IC50) under setting [2] was greater than 2 µM; the 50% inhibitory concentration (IC50) under setting [3] was greater than 10 µM; the IC50 under setting [4] was greater than 2 µM; the IC50 under setting [5] was greater than 2 µM; the 50% inhibitory concentration (IC50) under setting [6] was determined as 0.88 µM. For the same compound, the IC50 under setting [7] is greater than 2 µM.

Turning to `CC(=O)c1c(SCc2ccc(F)c(Cl)c2)[nH]c2c(Br)ccc(Cl)c2c1=O` [Compound 30, 3-acetyl-8-bromo-5-chloro-2-((3-chloro-4-fluorobenzyl)thio)quinolin-4(1H)-one], the IC50 under setting [1] is greater than 2 µM; the IC50 under setting [2] is greater than 2 µM; the IC50 under setting [3] is greater than 10 µM; the half-inhibitory concentration (IC50) under setting [4] is greater than 2 µM; the IC50 under setting [5] was greater than 2 µM; the concentration for half-maximal inhibition (IC50) under setting [6] is greater than 2 µM. Also, the IC50 under setting [7] was greater than 2 µM.

Consider `CC(=O)c1c(SCc2ccc([N+](=O)[O-])cc2)[nH]c2c(Br)ccc(Cl)c2c1=O` [Compound 32, 3-acetyl-8-bromo-5-chloro-2-((4-nitrobenzyl)thio)quinolin-4(1H)-one], for which the IC50 under setting [1] was greater than 2 µM; the IC50 under setting [2] is greater than 2 µM; the IC50 under setting [3] is greater than 10 µM; the IC50 under setting [4] is greater than 2 µM; the 50% inhibitory concentration (IC50) under setting [5] is greater than 2 µM; the IC50 under setting [6] is greater than 2 µM. Moreover, the half-inhibitory concentration (IC50) under setting [7] is greater than 2 µM.

As for `CSc1c(C(C)=O)c(=O)c2c(Cl)ccc(Br)c2n1S(C)(=O)=O` [Compound 35, 3-acetyl-8-bromo-5-chloro-1-(methylsulfonyl)-2-(methylthio)quinolin-4(1H)-one], the half-inhibitory concentration (IC50) is, setting by setting: under setting [1], greater than 2 µM; under setting [2], greater than 2 µM; under setting [3], greater than 10 µM; under setting [4], greater than 2 µM; under setting [5], greater than 2 µM; under setting [6], greater than 2 µM. Further, the 50% inhibitory concentration (IC50) under setting [7] is greater than 2 µM.

For `CC(=O)c1c([S+](C)[O-])n(S(=O)(=O)C(F)(F)F)c2c(Br)ccc(Cl)c2c1=O` (stereo not drawn) [Compound 36, 3-acetyl-8-bromo-5-chloro-2-(methylsulfinyl)-1-((trifluoromethyl)sulfonyl)quinolin-4(1H)-one], the IC50 is greater than 2 µM under setting [1]; greater than 2 µM under setting [2]; greater than 10 µM under setting [3]; greater than 2 µM under setting [4]; greater than 2 µM under setting [5]; greater than 2 µM under setting [6]. The IC50 under setting [7] is greater than 2 µM.

Regarding `CSc1c(C(C)=O)c(=O)c2c(Cl)ccc(Br)c2n1S(=O)(=O)c1ccc(Cl)cc1` [Compound 37, 3-acetyl-8-bromo-5-chloro-1-((4-chlorophenyl)sulfonyl)-2-(methylthio)quinolin-4(1H)-one], the IC50 by setting is: under setting [1], greater than 2 µM; under setting [2], greater than 2 µM; under setting [3], greater than 10 µM; under setting [4], greater than 2 µM; under setting [5], greater than 2 µM; under setting [6], greater than 2 µM. The half-maximal inhibitory concentration (IC50) under setting [7] was greater than 2 µM.

With `CSc1c(C(C)=O)c(=O)c2c(Cl)ccc(Br)c2n1S(=O)(=O)c1ccc([N+](=O)[O-])cc1` [Compound 38, 3-acetyl-8-bromo-5-chloro-2-(methylthio)-1-((4-nitrophenyl)sulfonyl)quinolin-4(1H)-one], the IC50 runs as follows: under setting [1], greater than 2 µM; under setting [2], greater than 2 µM; under setting [3], greater than 10 µM; under setting [4], greater than 2 µM; under setting [5], greater than 2 µM; under setting [6], greater than 2 µM. Also, the IC50 under setting [7] was greater than 2 µM.

`CCS(=O)(=O)n1c([S+](C)[O-])c(C(C)=O)c(=O)c2c(Cl)ccc(Br)c21` (stereo not drawn) [Compound 39, 3-acetyl-8-bromo-5-chloro-1-(ethylsulfonyl)-2-(methylsulfinyl)quinolin-4(1H)-one]: the IC50 is greater than 2 µM under setting [1]; greater than 2 µM under setting [2]; greater than 10 µM under setting [3]; greater than 2 µM under setting [4]; greater than 2 µM under setting [5]; greater than 2 µM under setting [6]. For the same compound, the IC50 under setting [7] was greater than 2 µM.

As for `CSc1c(C(C)=O)c(=O)c2c(Cl)ccc(Br)c2n1S(=O)(=O)c1ccc(C(C)(C)C)cc1` [Compound 40, 3-acetyl-8-bromo-1-((4-(tert-butyl)phenyl)sulfonyl)-5-chloro-2-(methylthio)quinolin-4(1H)-one], the IC50 reads like this: under setting [1], greater than 2 µM; under setting [2], greater than 2 µM; under setting [3], greater than 10 µM; under setting [4], greater than 2 µM; under setting [5], greater than 2 µM; under setting [6], greater than 2 µM. In addition, under setting [7], the IC50 is greater than 2 µM.

With `CC(=O)c1c(S(C)(=O)=O)n(S(=O)(=O)c2ccc(C(C)(C)C)cc2)c2c(Br)ccc(Cl)c2c1=O` [Compound 41, 3-acetyl-8-bromo-1-((4-(tert-butyl)phenyl)sulfonyl)-5-chloro-2-(methylsulfonyl)quinolin-4(1H)-one], the IC50 reads like this: under setting [1], greater than 2 µM; under setting [2], greater than 2 µM; under setting [3], greater than 10 µM; under setting [4], greater than 2 µM; under setting [5], greater than 2 µM; under setting [6], greater than 2 µM. The IC50 under setting [7] was greater than 2 µM.

For `CC(=O)c1c([S+](C)[O-])n(S(=O)(=O)c2ccc(C(C)(C)C)cc2)c2c(Br)ccc(Cl)c2c1=O` (stereo not drawn) [Compound 42, 3-acetyl-8-bromo-1-((4-(tert-butyl)phenyl)sulfonyl)-5-chloro-2-(methylsulfinyl)quinolin-4(1H)-one], the IC50 is, setting by setting: under setting [1], greater than 2 µM; under setting [2], greater than 2 µM; under setting [3], greater than 10 µM; under setting [4], greater than 2 µM; under setting [5], greater than 2 µM; under setting [6], greater than 2 µM. Further, the IC50 under setting [7] is greater than 2 µM.

Consider `CC(=O)c1c(SCc2cc(Cl)ccc2Cl)[nH]c2c(Br)ccc(Cl)c2c1=O` [Compound 43, 3-acetyl-8-bromo-5-chloro-2-((2,5-dichlorobenzyl)thio)quinolin-4(1H)-one], for which the IC50 was greater than 2 µM under setting [1]; greater than 2 µM under setting [2]; greater than 10 µM under setting [3]; greater than 2 µM under setting [4]; greater than 2 µM under setting [5]; greater than 2 µM under setting [6]. Under setting [7], the IC50 is greater than 2 µM.

As for `CC(=O)c1c(SCc2cc(F)cc(F)c2)[nH]c2c(Br)ccc(Cl)c2c1=O` [Compound 45, 3-acetyl-8-bromo-5-chloro-2-((3,5-difluorobenzyl)thio)quinolin-4(1H)-one], the IC50 is, setting by setting: under setting [1], greater than 2 µM; under setting [2], greater than 2 µM; under setting [3], greater than 10 µM; under setting [4], greater than 2 µM; under setting [5], greater than 2 µM; under setting [6], greater than 2 µM. For the same compound, the IC50 under setting [7] is greater than 2 µM.

As for `CC(=O)c1c(SCc2cccc(I)c2)[nH]c2c(Br)ccc(Cl)c2c1=O` [Compound 47, 3-acetyl-8-bromo-5-chloro-2-((3-iodobenzyl)thio)quinolin-4(1H)-one], the IC50 is greater than 2 µM under setting [1]; greater than 2 µM under setting [2]; greater than 10 µM under setting [3]; greater than 2 µM under setting [4]; greater than 2 µM under setting [5]; greater than 2 µM under setting [6]. Also, under setting [7], the IC50 was greater than 2 µM.

In the case of `CC(=O)c1c([S+]([O-])Cc2cccc(I)c2)[nH]c2c(Br)ccc(Cl)c2c1=O` (stereo not drawn) [Compound 48, 3-acetyl-8-bromo-5-chloro-2-((3-iodobenzyl)sulfinyl)quinolin-4(1H)-one], the IC50 reads like this: under setting [1], greater than 2 µM; under setting [2], greater than 2 µM; under setting [3], greater than 10 µM; under setting [4], greater than 2 µM; under setting [5], greater than 2 µM; under setting [6], greater than 2 µM. Also, under setting [7], the IC50 is greater than 2 µM.

Turning to `CC(=O)c1c(SCc2cccc(F)c2)[nH]c2c(Br)ccc(Cl)c2c1=O` [Compound 49, 3-acetyl-8-bromo-5-chloro-2-((3-fluorobenzyl)thio)quinolin-4(1H)-one], the IC50 was greater than 2 µM under setting [1]; greater than 2 µM under setting [2]; greater than 10 µM under setting [3]; greater than 2 µM under setting [4]; greater than 2 µM under setting [5]; greater than 2 µM under setting [6]. For the same compound, under setting [7], the IC50 is greater than 2 µM.

Regarding `CC(=O)c1c(SCc2ccccc2)nc2c(Br)ccc(Cl)c2c1O` [Compound 52, 1-(2-(benzylthio)-8-bromo-5-chloro-4-hydroxyquinolin-3-yl)ethan-1-one], the IC50 is, setting by setting: under setting [1], greater than 2 µM; under setting [2], greater than 2 µM; under setting [3], greater than 10 µM; under setting [4], greater than 2 µM; under setting [5], greater than 2 µM; under setting [6], greater than 2 µM. Moreover, the IC50 under setting [7] was greater than 2 µM.

Values taken from patent US11464770B2, “Anticancer pharmaceutical composition” (NATIONAL CANCER CENTER, priority 2016, dated 2022).
